Results filed as inconclusive are left out. Calls of active or inactive are those of the source. How the calls were made is not given here.
What follows are molecules tested on Mycobacterium tuberculosis non-replicating, growth inhibition (assay: growth inhibition of non-replicating M. tuberculosis (AID 488890)).

Question: Which IC50 does the source give for COc1ccc(/C=N/Nc2cc(C)nc(-n3nc(C)cc3C)n2)cc1 here?
Answer: 3.25 µM

Question: Which IC50 does the source give for CN(C)c1nc(-c2ccccn2)nnc1-c1ccccc1 here?
Answer: 9.74 µM

Question: For O=C(c1ccccc1)c1nc[nH]c1C(=O)Nc1ccccc1, which IC50 is on record?
Answer: 11.5 µM (inactive)

Question: For O=C(OCCCOC(=O)c1ccc([N+](=O)[O-])o1)c1ccc([N+](=O)[O-])o1, which IC50 is on record?
Answer: 1.22 µM

Question: How did the IC50 turn out when O=C(NC1CCCCC1)c1nc2c(nnn2Cc2ccccc2Cl)c(=O)[nH]1 was run?
Answer: 3.72 µM

Question: For Cc1ccc(NC(=O)c2ccc([N+](=O)[O-])o2)cc1S(=O)(=O)N1CCOCC1, which IC50 is on record?
Answer: 13.9 µM (inactive)

Question: How did the IC50 turn out when NC(N)=N/N=C/c1cccc([N+](=O)[O-])c1O was run?
Answer: 2.01 µM

Question: CC(=O)N1CCN(C(=O)CC2OC(=O)c3ccccc32)CC1 (centres undefined) was tested. Which IC50 did it give?
Answer: 18.9 µM (inactive)

Question: Which IC50 does the source give for NC1=NC[C@H](Cc2ccc(O)cc2)N1CCc1cccc2ccccc12 here?
Answer: 8.19 µM

Question: For Cc1cc(C)n2nc(N)c(N=Nc3ccccc3)c2n1, which IC50 is on record?
Answer: 5.87 µM

Question: For COc1ccc(-c2nnc(NC(=O)c3ccc(S(=O)(=O)N4COCC4(C)C)cc3)o2)cc1, which IC50 is on record?
Answer: 11.2 µM (inactive)

Question: With CCOC(=O)Cn1cc(C#N)c2ccccc21 as the molecule, how does the IC50 read?
Answer: 6.17 µM

Question: O=C(CCSc1nnc(-c2ccncc2)o1)Nc1ccc(Cl)cc1 was tested. Which IC50 did it give?
Answer: 14.7 µM (inactive)

Question: For Cc1ccc(-c2nnc(-c3ccccc3)o2)cc1, which IC50 is on record?
Answer: 1.71 µM

Question: With CC1=NN(C(=O)c2cc(C)nn2C)C(O)(C(F)(F)F)C1 (centres undefined) as the molecule, how does the IC50 read?
Answer: 7.51 µM

Question: For CCOC(=O)c1csc(COc2ccccc2Cl)n1, which IC50 is on record?
Answer: 1.57 µM

Question: With Cc1ccccc1Cn1cc(NC(=O)c2noc(C(C)C)c2[N+](=O)[O-])cn1 as the molecule, how does the IC50 read?
Answer: 7.58 µM

Question: With CCOc1c(OC(C)=O)ccc(/C=C2\N=C(SCC)SC2=O)c1[N+](=O)[O-] as the molecule, how does the IC50 read?
Answer: 10.2 µM (inactive)

Question: With O=C1CC(N2CCSCC2)C(=O)N1CCc1ccccc1 (centres undefined) as the molecule, how does the IC50 read?
Answer: 19.1 µM (inactive)

Question: Cc1ccc(NC(=O)C2=C(c3ccccc3)S(=O)(=O)CCS2(=O)=O)cc1 was tested. Which IC50 did it give?
Answer: 2.05 µM

Question: OC(C#CCN1CCOCC1)c1cccs1 (centres undefined) was tested. Which IC50 did it give?
Answer: 7.53 µM

Question: Which IC50 does the source give for CC(/C=C/c1ccc2c(c1)OCO2)=N/NC(=O)C1COc2ccccc2O1 (centres undefined) here?
Answer: 4.54 µM

Question: With O=C(Nc1nnc(-c2ccc3c(c2)CCCC3)o1)c1c(F)cccc1F as the molecule, how does the IC50 read?
Answer: 3.12 µM

Question: For CC1=NNC(=O)/C1=C\c1cn(-c2ccccc2)nc1-c1ccccc1, which IC50 is on record?
Answer: 7.73 µM

Question: O=C(COC(=O)c1ccccn1)Nc1cccc(Cl)c1Cl was tested. Which IC50 did it give?
Answer: 6.11 µM

Question: Cc1cc(NC(=O)c2cc([N+](=O)[O-])cc([N+](=O)[O-])c2)no1 was tested. Which IC50 did it give?
Answer: 17.3 µM (inactive)

Question: With Cc1ccc(-c2nnc(SCC#CCOC(=O)c3ccco3)o2)cc1 as the molecule, how does the IC50 read?
Answer: 0.11 µM

Question: For O=C(c1cc(F)ccc1F)C1CCCN(Cc2ccc3nonc3c2)C1 (centres undefined), which IC50 is on record?
Answer: 12.7 µM (inactive)

Question: For COC(=O)C1=C(C)N(CC2CC2)C(=NCc2cccc(Cl)c2)N[C@H]1c1ccccc1, which IC50 is on record?
Answer: 10.5 µM (inactive)

Question: For Oc1ccccc1/C=N/Nc1ncc(Br)cn1, which IC50 is on record?
Answer: 1.12 µM

Question: How did the IC50 turn out when CC1(C)C[C@H]2C=C(C=O)[C@]3(C=O)C[C@]3(C)[C@H]2C1 was run?
Answer: 2.94 µM

Question: For C/C(=N\NC(=O)c1ccc(CN2CCc3ccccc3C2)cc1)c1ccccc1O, which IC50 is on record?
Answer: 0.7 µM

Question: For CCOc1cc(/C=N/NC(=O)c2ccccn2)ccc1OC(=O)c1cccs1, which IC50 is on record?
Answer: 5.55 µM

Question: For O=C(COc1cccc2ccccc12)Nc1ccc(Cl)cc1C(=O)O, which IC50 is on record?
Answer: 6.24 µM

Question: CC(C)Cn1c(N)c(C(=O)COC(=O)c2ccc([N+](=O)[O-])o2)c(=O)n(C)c1=O was tested. Which IC50 did it give?
Answer: 2.86 µM

Question: Which IC50 does the source give for C/C(=N\NC(=O)c1ccncc1)c1cc2ccccc2oc1=O here?
Answer: 0.43 µM

Question: For Cc1cc2cc(CNC(=O)C3CCCC3)ccc2n1C, which IC50 is on record?
Answer: 17.5 µM (inactive)

Question: With CCNC(=O)COC(=O)c1ccc(-c2nc3ccccc3s2)s1 as the molecule, how does the IC50 read?
Answer: 5.7 µM

Question: Which IC50 does the source give for CC1=CC2=NC(=O)/C(=C\c3ccc(OC(=O)c4ccco4)cc3)C(=N)N2O1 here?
Answer: 5.99 µM

Question: For CCc1ccc(OCCNc2cc(N3CCNC(C)C3)ccc2[N+](=O)[O-])cc1 (centres undefined), which IC50 is on record?
Answer: 2.89 µM

Question: Which IC50 does the source give for O=c1oc2ccccc2c(Nc2ccccc2O)c1[N+](=O)[O-] here?
Answer: 8.58 µM

Question: With CCc1cc2c3c(c1)C(C)CC(C)(C)N3C(=O)/C2=C1\SC(=O)NC1=O (centres undefined) as the molecule, how does the IC50 read?
Answer: 21.5 µM (inactive)

Question: For Cc1ccc(C(=O)N/N=C\c2ccc(-c3ccc(Cl)cc3)o2)cn1, which IC50 is on record?
Answer: 7.02 µM

Question: How did the IC50 turn out when O=C(NCCCN1CCCC1)c1cc2c(Cl)nc3ccccc3c2s1 was run?
Answer: 10.5 µM (inactive)

— PubChem BioAssay AID488890 (Southern Research Specialized Biocontainment Screening …, 2010)
